Literature values in patent publication US20060122162A1, “Methods of using temozolomide formulation intrathecally in the treatment of cancers” (Schering Corporation, priority 2004, published 2006).

Cn1nnc2c(C(N)=O)ncn2c1=O [Temozolomide, 3,4-dihydro-3-methyl-4-oxoimidazo-[5,1-d]-1,2,3,4-tetrazin-8-carboximide]
solubility in water: water-insoluble
patients in whom clinical responses were achieved (advanced melanoma; patients having advanced melanoma, Newlands et al., Br J Cancer 1992): 17%
patients in whom a clinical response was achieved (advanced melanoma; patients with advanced melanoma, Bleehan et al., Journal of Clinical Oncology 1995): 21%
